Data from patent US20250197453A1, “COMPOSITION COMPRISING TAT PEPTIDE VARIANT AS ACTIVE INGREDIENT FOR PREVENTING OR TREATING METABOLIC DISEASES” (priority 2021, published 2025).

Test system: 3T3-L1 cells
Assay: PEGn-TAT variants: inhibition of differentiation of 3T3-L1 cells and of fatty acid synthesis
Format: cell-based
Description: 3T3-L1 cells were cultured in DMEM (high glucose, pyruvate, GIBCO CAT #11995) supplemented with 10% calf serum and 1% penicillin-streptomycin (P/S). Cells were seeded in a 6-well culture plate, and when the cells reached a confluency of 60 to 70%, MDI, a differentiation initiation medium, was added at a 1× concentration. At this time, the cells were treated with each of TAT-38, X-FAT8, and PEGn-TAT at a concentration of 1 to 10 μM. After 2 days, MDI was replaced with insulin, and each of AT-38, X-FAT8, and PEGn-TAT was added to fresh medium every day during culture. From day 4, culture was continued for 4 days in maintenance medium. Thereafter, the cell status was checked and recorded every day. When necessary, the cells were fixed and the amount of fatty acids was analyzed by Oil-O red staining.

TACTNCYCAKCCFHCQVC-(Peg)7-RAKRRQRRR [PEG7-TAT]
differentiation inhibitory ability and intracellular lipid accumulation, 3T3-L1 cells (4 days (FIG. 12A) and 6 days (FIG. 12B) after the initiation of differentiation): very high
differentiation inhibitory ability and intracellular lipid accumulation, 3T3-L1 cells (4 days after the initiation of differentiation, FIG. 11A): very high
differentiation inhibitory ability, 3T3-L1 cells (6 days after the induction of differentiation, FIG. 11B): still significant
differentiation and intracellular lipid accumulation, 3T3-L1 cells, Oil-O-Red staining (8 days after the initiation of differentiation, FIG. 13): strong inhibition of differentiation and inhibition of intracellular lipid accumulation
